In PubChem BioAssay AID248 (DTP/NCI, 2004):
Several values for one entry are separate records, joined by “and”; a condition that tells them apart may be missing. Equal values may be shown once. Toxic doses and inconclusive results are not listed. Rule as the data show it: active = T/C of 150% or more; inactive = T/C below 125%.

Test system: L1210 leukemia ip in BDF1 mice, survival T/C
Assay: NCI In Vivo Anticancer Drug Screen. Data for tumor model L1210 Leukemia (intraperitoneal) in B6D2F1 (BDF1) mice
Conditions: endpoint: mean survival time, higher = longer survival
Method in brief: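 Transplantable tumor model; survival measured in treated vs vehicle control mice. Value = treated/control.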

[1] = dose: 50.0 mg/kg/injection, schedule: Q01DX001 (ip), vehicle: saline with Tween-80
[2] = dose: 100.0 mg/kg/injection, schedule: Q01DX001 (ip), vehicle: saline with Tween-80
[3] = dose: 100.0 mg/kg/injection, schedule: Q01DX001 (ip), vehicle: other
[4] = dose: 100.0 mg/kg/injection, schedule: Q01DX009 (ip), vehicle: saline with Tween-80
[5] = dose: 100.0 mg/kg/injection, schedule: Q04DX003 (ip), vehicle: saline with Tween-80
[6] = dose: 200.0 mg/kg/injection, schedule: Q01DX001 (ip), vehicle: other
[7] = dose: 200.0 mg/kg/injection, schedule: Q01DX009 (ip), vehicle: saline with Tween-80
[8] = dose: 200.0 mg/kg/injection, schedule: Q04DX003 (ip), vehicle: saline with Tween-80
[9] = dose: 400.0 mg/kg/injection, schedule: Q01DX001 (ip), vehicle: other
[10] = dose: 400.0 mg/kg/injection, schedule: Q04DX003 (ip), vehicle: saline with Tween-80
[11] = dose: 100.0 mg/kg/injection, schedule: Q04DX002 (ip), vehicle: saline with Tween-80
[12] = dose: 200.0 mg/kg/injection, schedule: Q04DX002 (ip), vehicle: saline with Tween-80
[13] = dose: 400.0 mg/kg/injection, schedule: Q04DX002 (ip), vehicle: saline with Tween-80
[14] = dose: 100.0 mg/kg/injection, schedule: Q04DX003 (ip), vehicle: Klucel (hydroxypropylcellulose) (HPC)
[15] = dose: 200.0 mg/kg/injection, schedule: Q04DX003 (ip), vehicle: Klucel (hydroxypropylcellulose) (HPC)
[16] = dose: 400.0 mg/kg/injection, schedule: Q04DX003 (ip), vehicle: Klucel (hydroxypropylcellulose) (HPC)
[17] = dose: 25.0 mg/kg/injection, schedule: Q01DX009 (ip), vehicle: Klucel (hydroxypropylcellulose) (HPC)
[18] = dose: 50.0 mg/kg/injection, schedule: Q01DX009 (ip), vehicle: Klucel (hydroxypropylcellulose) (HPC)
[19] = dose: 100.0 mg/kg/injection, schedule: Q01DX009 (ip), vehicle: Klucel (hydroxypropylcellulose) (HPC)
[20] = dose: 400.0 mg/kg/injection, schedule: Q01DX009 (ip), vehicle: Klucel (hydroxypropylcellulose) (HPC)
[21] = dose: 50.0 mg/kg/injection, schedule: Q01DX009 (ip), vehicle: saline with Tween-80
[22] = dose: 200.0 mg/kg/injection, schedule: Q01DX001 (ip), vehicle: saline
[23] = dose: 200.0 mg/kg/injection, schedule: Q01DX009 (ip), vehicle: Klucel (hydroxypropylcellulose) (HPC)
[24] = dose: 200.0 mg/kg/injection, schedule: Q01DX001 (ip), vehicle: saline with Tween-80

Measured: T/C

ClC1=C(Cl)C2(Cl)C3C4C=CC(C4)C3N1C2(Cl)Cl (stereo not drawn)
inactive: [1] 98 % of control | [2] 95 % of control

CNC(=S)N/N=C1/C(=N\NC(=S)NC)C(=O)OC1C(O)CO (stereo not drawn)
inactive: [3] 93 % of control | [4] 98 % of control | [5] 100 % of control | [6] 95 % of control | [7] 112 % of control | [8] 89 % of control | [9] 90 % of control | [10] 91 % of control

Cc1c2oc3c(C)ccc(C(=O)OCCN4CCN(c5ccccc5)CC4)c3nc-2c(C(=O)OCCN2CCN(c3ccccc3)CC2)c(N)c1=O
inactive: [11] 92 % of control | [12] 103 % of control | [13] 103 % of control

O=C(O)C(Cc1ccc(O)cc1)N(S(=O)(=O)Cc1ccccc1)S(=O)(=O)Cc1ccccc1 (stereo not drawn)
inactive: [3] 88 % of control | dose: 100.0 mg/kg/injection, schedule: Q04DX003 (ip), vehicle: other 95 % of control | [6] 97 % of control | dose: 200.0 mg/kg/injection, schedule: Q04DX003 (ip), vehicle: other 98 % of control | [9] 108 % of control | dose: 400.0 mg/kg/injection, schedule: Q04DX003 (ip), vehicle: other 88 % of control

COc1cc(-c2ccc(N=Nc3nc4nc(N)nc(O)c4[nH]3)c(OC)c2)ccc1N=Nc1nc2nc(N)nc(O)c2[nH]1
inactive: [14] 97 % of control | [15] 100 % of control | [16] 97 % of control

CCCCOc1ccc(/C=N/NC(=O)Nc2ccccc2)cc1
inactive: [17] 95 % of control | [18] 97 % of control | [19] 88 % of control and 90 % of control | [20] 87 % of control

O=C1OC2CC1(O)CC(O)C2O (stereo not drawn)
inactive: [21] 92 % of control | [4] 94 % of control | [7] 92 % of control

CCCCNC(=O)Nc1ccc(C(=O)O)c(O)c1
inactive: [14] 100 % of control | [15] 94 % of control | [16] 93 % of control

CC(=O)N(N=O)c1ccc(Cl)cc1[N+](=O)[O-]
inactive: dose: 50.0 mg/kg/injection, schedule: Q01DX009 (ip), vehicle: saline 101 % of control | dose: 100.0 mg/kg/injection, schedule: Q01DX009 (ip), vehicle: saline 104 % of control

Cc1cc(CSc2ssc(=S)c2-c2ccccc2)c(CSc2ssc(=S)c2-c2ccccc2)cc1C
inactive: [4] 94 % of control | [5] 112 % of control | [7] 92 % of control | [8] 106 % of control | dose: 400.0 mg/kg/injection, schedule: Q01DX009 (ip), vehicle: saline with Tween-80 96 % of control | [10] 95 % of control

O=C(OCCCl)c1ccco1
inactive: dose: 100.0 mg/kg/injection, schedule: Q01DX001 (ip), vehicle: saline 102 % of control | [22] 102 % of control | dose: 400.0 mg/kg/injection, schedule: Q01DX001 (ip), vehicle: saline 107 % of control

Cc1cc(O)c(C=O)c(C)c1O
inactive: [19] 110 % of control | [23] 117 % of control

CCCCNC(C)(C)C(SC(C)=O)c1ccc(Cl)cc1 (stereo not drawn)
inactive: [4] 89 % of control

Clc1cc2c(cc1CO/N=C\c1ccc3c(c1)OCO3)OCO2
inactive: dose: 100.0 mg/kg/injection, schedule: Q04DX003 (ip), vehicle: saline sonified 90 % of control | dose: 200.0 mg/kg/injection, schedule: Q04DX003 (ip), vehicle: saline sonified 88 % of control

COC(=O)C(=Cc1ccccc1)C(=O)OC
inactive: dose: 100.0 mg/kg/injection, schedule: Q04DX002 (ip), vehicle: Klucel (hydroxypropylcellulose) (HPC) 95 % of control | dose: 200.0 mg/kg/injection, schedule: Q04DX002 (ip), vehicle: Klucel (hydroxypropylcellulose) (HPC) 95 % of control | dose: 400.0 mg/kg/injection, schedule: Q04DX002 (ip), vehicle: Klucel (hydroxypropylcellulose) (HPC) 92 % of control

CCCCCCCCCCCCCCCCCCOc1cccc(C(F)(F)F)c1
inactive: [2] 89 % of control | [24] 91 % of control

CCOC(=O)c1c(/N=C/c2cc(Br)ccc2O)sc2c1CCCC2
inactive: [11] 109 % of control | [12] 102 % of control | [13] 98 % of control

Cc1cc(C)c2c(C#N)cn(-c3cccc([N+](=O)[O-])c3)c2n1
inactive: [1] 98 % of control | [2] 103 % of control | [24] 95 % of control | [22] 87 % of control

COc1cc(Cl)ccc1NC(=O)Oc1ccccc1C(N)=O
inactive: dose: 6.25 mg/kg/injection, schedule: Q01DX009 (ip), vehicle: Klucel (hydroxypropylcellulose) (HPC) 102 % of control | dose: 12.5 mg/kg/injection, schedule: Q01DX009 (ip), vehicle: Klucel (hydroxypropylcellulose) (HPC) 91 % of control | [17] 97 % of control | [18] 91 % of control | [19] 100 % of control

O=C(Nc1ccccc1F)c1ccccc1
inactive: [19] 97 % of control | [14] 96 % of control | [23] 87 % of control | [15] 98 % of control | [20] 89 % of control | [16] 104 % of control

COc1cc(C=NCCN=Cc2cc(OC)c(OC)c(OC)c2)cc(OC)c1OC
inactive: [21] 94 % of control | dose: 50.0 mg/kg/injection, schedule: Q04DX003 (ip), vehicle: saline with Tween-80 94 % of control | [4] 100 % of control | [5] 98 % of control | [8] 105 % of control

O=C(N/N=C/c1cccc(F)c1)c1ccccc1Cl
inactive: [21] 91 % of control | [4] 102 % of control | [7] 87 % of control

O=C1C=C(c2ccccc2)C2(c3ccccc3)OC2O1 (stereo not drawn)
inactive: [19] 109 % of control | [14] 98 % of control | [23] 100 % of control | [15] 98 % of control | [20] 98 % of control | [16] 98 % of control

ClCCN(CCCl)CCCNCCCNc1c2ccccc2nc2c1ccc1ccccc12
inactive: dose: 0.08 mg/kg/injection, schedule: Q01DX Z (ip), vehicle: saline 102 % of control | dose: 0.16 mg/kg/injection, schedule: Q01DX Z (ip), vehicle: saline 106 % of control | dose: 0.31 mg/kg/injection, schedule: Q01DX Z (ip), vehicle: saline 110 % of control | dose: 0.62 mg/kg/injection, schedule: Q01DX Z (ip), vehicle: saline 112 % of control | dose: 1.25 mg/kg/injection, schedule: Q01DX Z (ip), vehicle: saline 102 % of control | dose: 2.5 mg/kg/injection, schedule: Q01DX Z (ip), vehicle: saline 97 % of control

CC(=O)NC(CC(N)=O)C(=O)O (stereo not drawn)
inactive: dose: 100.0 mg/kg/injection, schedule: Q04DX002 (ip), vehicle: saline 96 % of control | dose: 200.0 mg/kg/injection, schedule: Q04DX002 (ip), vehicle: saline 99 % of control | dose: 400.0 mg/kg/injection, schedule: Q04DX002 (ip), vehicle: saline 99 % of control

CCC(=O)N1CCOCC1
inactive: dose: 100.0 mg/kg/injection, schedule: Q04DX003 (ip), vehicle: saline 102 % of control | dose: 200.0 mg/kg/injection, schedule: Q04DX003 (ip), vehicle: saline 105 % of control | dose: 400.0 mg/kg/injection, schedule: Q04DX003 (ip), vehicle: saline 98 % of control

CCCCC(CC)C(O)C(C)C(C)O (stereo not drawn)
inactive: [19] 97 % of control | [14] 101 % of control | [23] 102 % of control | [15] 98 % of control | [20] 100 % of control | [16] 95 % of control
